This data set can be described thus: Multi-component pharmacokinetics in rat plasma after oral administration of RB, RPA or RB-RPA extracts (UPLC-HRMS, non-compartmental analysis). The note with it: for AUC0-t / AUC0-∞ / Cmax / t1/2 / tmax / AUC(0-inf) / half-life / Cmax, second value / tmax, second value: rat plasma, n = 7; for AUC0-t / AUC0-∞ / Cmax / t1/2 / tmax / AUC(0-inf) / half-life: mean ± SD; for change of AUC0-∞ after combination: oral RB-RPA group vs single herbal group (RB or RPA). The class given is in vivo, Sprague-Dawley rats. The procedure: (Beijing, China, No. SCXK2018-0011). […] All rats were free to access the water and food until 12 h before the experiment. The animal study was reviewed and approved by the Experimental Animal Ethical Committee of Modern Research Center for Traditional Chinese Medicine, Shanxi University (animal ethic approval number: SXULL2018018), and all experimental procedures were carried out in accordance with the NIH Guide for the Care and Use of Laboratory Animals. After one week of adaptation, twenty-one rats were divided into three groups randomly, with seven rats in each group: 1) RPA group, were oral administration of Radix Paeoniae Alba extract (45 g-herb/kg); 2) RB group, were oral administration of Radix Bupleuri extract (45 g-herb/kg); 3) RB-RPA group, were oral administration of powder mixture of Radix Bupleuri and Radix Paeoniae Alba extracts (containing 45 g-herb/kg Radix Bupleuri and 45 g-herb/kg Radix Paeoniae Alba). […] Each group received intragastric administration with a volume of 10 ml/kg (rat body weight). […] All rats were free to access the water during the experiment. The blood samples at each time point were collected from seven rats. The blood samples were centrifuged at 4,000 rpm for 10 min and frozen at -80°C until analysis. Using a Thermo-Fisher Dionex UltiMate 3000 UHPLC system coupled with a Q Exactive Orbitrap-MS (Thermo-Fisher, United States) and Xcalibur workstation (Thermo-Fisher Scientific Inc.,Waltham, MA, United States) to acquire UPLC-HRMS raw data. Chromatographic separation of herb extracts and plasma samples was performed on an Acquity UPLC HSS T3 column (2.1 mm × 100 mm, 1.8 μm) maintained at 37°C. The flow rate was 0.2 ml/min and the injection volume was 5 μL. […] Mass spectrometry detection conditions were set as follows: the MS data were acquired under positive and negative ionization modes via heated electrospray ionization (HESI) source. […] The Q Exactive Orbitrap-MS has a fast positive and negative ion switching function, which could switch between positive-negative ion modes during the analysis of the same sample. So, we applied the method of switching ion modes in the detection process to quantify all analytes better. […] UPLC/MS/MS calibration and quantitation data were processed with Xcalibur workstation (Thermo-Fisher Scientific Inc., Waltham, MA, United States). For the eight components with standard reference, calculating their concentrations from the standard curves. For the other 30 components without standard reference, their concentrations were analyzed following the regression equations of homologous compounds ([Qiao et al., 2012]): paeoniflorin for P1 and M1 to M3; methylgallate for M4 to M10; saikosaponin […] and […]; saikosaponin […]; saikosaponin […]; saikosaponin B2 for P11 and M25 to […].

Where [1] appears, read: oral RB single extract 45 g-herb/kg.
[2] abbreviates: oral RB-RPA mixed extracts (45 g-herb/kg RB + 45 g-herb/kg RPA).
Setting [3] is: oral administration of mixed extracts RB-RPA.
The mark [4] stands for this setting: oral administration of single extract RPA.
[5] abbreviates: male, Sprague-Dawley, rat, plasma, po, 45 g/kg, oral administration of mixed extracts RB-RPA.
[6] abbreviates: male, Sprague-Dawley, rat, plasma, po, 45 g/kg, oral administration of mixed extracts RB-RPA, read-out: AUC0-t.
Where [7] appears, read: male, Sprague-Dawley, rat, plasma, po, 45 g/kg, oral administration of mixed extracts RB-RPA, read-out: Cmax.
The mark [8] stands for this setting: male, Sprague-Dawley, rat, plasma, po, 45 g/kg, oral administration of mixed extracts RB-RPA, read-out: tmax.
[9] abbreviates: male, Sprague-Dawley, rat, plasma, po, 45 g/kg, oral administration of single extract RPA.
The mark [10] stands for this setting: male, Sprague-Dawley, rat, plasma, po, 45 g/kg, oral administration of single extract RPA, read-out: AUC0-t.
The mark [11] stands for this setting: male, Sprague-Dawley, rat, plasma, po, 45 g/kg, oral administration of single extract RPA, read-out: Cmax.

Where two headings read alike, the source gives them in different places.

Turning to `CC(=O)OC[C@H]1O[C@@H](O[C@H]2[C@@H](O)[C@@H](C)O[C@@H](O[C@H]3CC[C@@]4(C)[C@@H](CC[C@]5(C)[C@@H]4C=CC46OCC7(CCC(C)(C)C[C@H]74)[C@@H](O)C[C@]65C)[C@]3(C)CO)[C@@H]2O)[C@H](O)[C@@H](O)[C@@H]1O` (stereo partly shown) [Acetyl-saikosaponin A], under setting [1], the AUC0-t was 51.16 ± 11.83 ng·h/mL, the “AUC0-∞” value was 57.19 ± 10.74 ng·h/mL, the Cmax was 29.39 ± 11.24 ng/mL and the t1/2 is 3.50 ± 0.74 h. The compound also registered a tmax under setting [1] of 0.46 ± 0.19 h. For the same compound, under setting [2], the AUC0-t worked out at 62.08 ± 16.91 ng·h/mL, the “AUC0-∞” value is 67.17 ± 16.28 ng·h/mL, the Cmax was found to be 27.55 ± 9.89 ng/mL and the t1/2 worked out at 4.38 ± 1.27 h. Also, under setting [2], the tmax was found to be 0.54 ± 0.19 h.
`CC(=O)OC[C@H]1O[C@@H](O[C@H]2[C@@H](O)[C@@H](C)O[C@@H](O[C@H]3CC[C@@]4(C)[C@@H](CC[C@]5(C)[C@@H]4C=CC46OCC7(CCC(C)(C)C[C@H]74)[C@H](O)C[C@]65C)[C@]3(C)CO)[C@@H]2O)[C@H](O)[C@@H](O)[C@@H]1O` (stereo partly shown) [Acetyl-saikosaponin D]: under setting [1], the AUC0-t was determined as 23.58 ± 6.77 ng·h/mL, the “AUC0-∞” value worked out at 25.54 ± 7.23 ng·h/mL, the Cmax is 19.20 ± 6.70 ng/mL and the t1/2 amounted to 2.68 ± 0.71 h. Also, the tmax under setting [1] was determined as 0.50 ± 0.27 h. Under setting [2], the AUC0-t is 38.05 ± 21.32 ng·h/mL, the “AUC0-∞” value was determined as 43.25 ± 27.08 ng·h/mL, the Cmax was determined as 20.31 ± 12.42 ng/mL and the t1/2 came to 4.39 ± 1.55 h. Further, the tmax under setting [2] worked out at 0.50 ± 0.27 h.
Turning to `C[C@]12C[C@@H](O)[C@@H]3C[C@@]1(O[C@@H]1O[C@H](CO)[C@@H](O)[C@H](O)[C@H]1O)[C@@]3(COC(=O)c1ccccc1)C(=O)O2` [Albiflorin], under setting [2], the highest concentration (Cmax) turned out to be 365.94 ± 41.75 ng/mL. Besides, the Cmax (oral RPA single extract 45 g-herb/kg) stood at 271.50 ± 63.29 ng/mL. Besides, under setting [3], the AUC0-t stood at 1834.06 ± 191.89 ng·h/mL, the “AUC0-∞” value stood at 1849.80 ± 396.92 ng·h/mL, the Cmax came out at 365.94 ± 41.75 ng/mL and the t1/2 came to 3.46 ± 0.56 h. Besides, the tmax under setting [3] is 0.71 ± 0.25 h. Under setting [4], the AUC0-t is 1202.69 ± 302.31 ng·h/mL, the “AUC0-∞” value was found to be 1210.33 ± 303.04 ng·h/mL, the Cmax was 271.50 ± 63.29 ng/mL and the t1/2 was determined as 3.19 ± 0.58 h. In addition, the tmax under setting [4] came to 1.25 ± 0.89 h. In addition, under “rat”, the “change of AUC0-∞ after combination” value was “significantly increased”.
As for `C[C@@]12C[C@@]3(O)O[C@@H](O1)[C@]1(CO)[C@H]3C[C@@]12O[C@@H]1O[C@H](CO)[C@@H](O)[C@H](O)[C@H]1O` [Desbenzoylpaeoniflorin], under setting [3], the AUC0-t was determined as 27.39 ± 15.84 ng·h/mL, the “AUC0-∞” value came out at 28.66 ± 16.13 ng·h/mL, the Cmax came out at 10.12 ± 5.32 ng/mL and the t1/2 turned out to be 2.17 ± 0.95 h. The same compound returned a tmax under setting [3] of 0.58 ± 0.13 h. In addition, under setting [4], the AUC0-t was found to be 18.66 ± 9.99 ng·h/mL, the “AUC0-∞” value was determined as 20.34 ± 9.44 ng·h/mL, the Cmax was determined as 8.76 ± 4.90 ng/mL and the t1/2 amounted to 2.72 ± 1.32 h. Also, the tmax under setting [4] was 0.75 ± 0.16 h.
Take `COC(=O)c1cc(O)c(O)c(O)c1` [Methyl gallate]: the total exposure AUC(0-inf) under setting [5] amounted to 213 ± 40.5 ng·h/mL and the AUC(0-inf) under setting [9] came to 144 ± 59.1 ng·h/mL. Besides, the half-life reads like this: under setting [5], 4.77 ± 3.32 h; under setting [9], 4.11 ± 2.31 h. The AUC0-t worked out at 187 ± 42.4 ng·h/mL under setting [6] and 141 ± 61.3 ng·h/mL under setting [10]. In addition, the Cmax runs as follows: under setting [7], 57.6 ± 7.34 ng/mL; under setting [11], 48.6 ± 9.47 ng/mL. The tmax under setting [8] came to 0.5 ± 0.16 h and the tmax (male, Sprague-Dawley, rat, plasma, po, 45 g/kg, oral administration of single extract RPA, read-out: tmax) worked out at 0.58 ± 0.13 h. Moreover, the “change of AUC0-∞ after combination” value (rat) was “significantly increased”.
As to `C[C@@]12C[C@@]3(O)O[C@@H](O1)[C@]1(COC(=O)c4ccccc4)[C@H]3C[C@@]12O[C@@H]1O[C@H](CO)[C@@H](O)[C@H](O)[C@H]1O` [Paeoniflorin], the Cmax worked out at 1780 ± 513 ng/mL (male, Sprague-Dawley, rat, plasma, po, 45 g-herb/kg, oral RPA single extract 45 g-herb/kg, read-out: Cmax); 2930 ± 386 ng/mL under setting [7]; 1780 ± 513 ng/mL under setting [11]; 2930 ± 386 ng/mL (male, Sprague-Dawley, rat, plasma, po, oral RB-RPA mixed extracts (45 g-herb/kg RB + 45 g-herb/kg RPA), read-out: Cmax). The AUC(0-inf) is 7170 ± 1140 ng·h/mL under setting [5] and 4260 ± 873 ng·h/mL under setting [9]. This compound also had a half-life under setting [5] of 1.96 ± 0.37 h. Besides, the AUC0-t under setting [6] turned out to be 7170 ± 1140 ng·h/mL and the AUC0-t under setting [10] amounted to 4260 ± 869 ng·h/mL. Also, the tmax under setting [8] worked out at 0.33 ± 0.13 h. Also, the t1/2 under setting [4] was found to be 2.71 ± 0.72 h. Moreover, the “change of AUC0-∞ after combination” value (rat) is on record as “significantly increased”.
Turning to `CC1C2OC3(C)CC(=O)C1CC3(O)O2` (stereo not shown) [Paeonimetabolin I], under setting [3], the AUC0-t is 4248.67 ± 1970.10 ng·h/mL, the “AUC0-∞” value was found to be 4806.68 ± 2129.42 ng·h/mL, the Cmax is 575.13 ± 257.81 ng/mL and the t1/2 worked out at 7.11 ± 2.01 h. The compound further had a tmax under setting [3] of 0.83 ± 0.13 h. Moreover, under setting [4], the AUC0-t came out at 4864.64 ± 2525.32 ng·h/mL, the “AUC0-∞” value was 5467.27 ± 2837.33 ng·h/mL, the Cmax was 658.61 ± 349.75 ng/mL and the t1/2 came out at 7.39 ± 0.45 h. Also, the tmax under setting [4] was 0.75 ± 0.00 h.
As to `C[C@H]1O[C@@H](O[C@H]2CC[C@@]3(C)[C@@H](CC[C@]4(C)[C@@H]3C=CC3=C5CC(C)(C)CC[C@]5(CO)[C@H](O)C[C@]34C)[C@]2(C)CO)[C@H](O)[C@@H](O)[C@H]1O` [Prosaikogenin D], under setting [1], the AUC0-t came to 27.23 ± 10.38 ng·h/mL, the “AUC0-∞” value amounted to 31.50 ± 8.81 ng·h/mL, the Cmax came to 7.47 ± 3.88 ng/mL and the t1/2 came to 3.38 ± 1.75 h. In addition, under setting [1], the tmax came out at 0.83 ± 0.52 h; the “Cmax, second value” was determined as 6.32 ± 3.38 ng/mL; the “tmax, second value” amounted to 1.75 ± 1.02 h. In addition, under setting [2], the AUC0-t was 32.79 ± 15.58 ng·h/mL, the “AUC0-∞” value stood at 34.59 ± 14.83 ng·h/mL, the Cmax was 8.53 ± 4.68 ng/mL and the t1/2 turned out to be 2.98 ± 1.07 h. The tmax under setting [2] turned out to be 0.71 ± 0.40 h. Besides, under “oral RB-RPA mixed extracts”, the “Cmax, second value” turned out to be 8.42 ± 4.54 ng/mL and the “tmax, second value” came to 1.86 ± 0.92 h.
As to `C[C@H]1O[C@@H](O[C@H]2CC[C@@]3(C)[C@@H](CC[C@]4(C)[C@@H]3C=C[C@]35OC[C@@]6(CCC(C)(C)C[C@H]63)[C@@H](O)C[C@]54C)[C@]2(C)CO)[C@H](O)[C@@H](O)[C@H]1O` [Prosaikogenin F], under setting [1], the AUC0-t stood at 54.21 ± 25.01 ng·h/mL, the “AUC0-∞” value stood at 57.97 ± 25.49 ng·h/mL, the Cmax amounted to 14.68 ± 6.91 ng/mL and the t1/2 stood at 2.91 ± 0.84 h. The compound also gave a tmax under setting [1] of 1.54 ± 0.78 h. Also, under setting [2], the AUC0-t was 71.62 ± 34.91 ng·h/mL, the “AUC0-∞” value turned out to be 77.58 ± 36.46 ng·h/mL, the Cmax stood at 18.36 ± 8.50 ng/mL and the t1/2 was 3.46 ± 0.55 h. Moreover, the tmax under setting [2] amounted to 1.62 ± 0.74 h.

Usually Cmax stands for the maximum level reached in the sampled fluid or tissue. A word on the AUC(0-inf): it is total exposure, with the tail of the curve extrapolated. The low end stands for less exposure, the high end for more exposure. The term half-life denotes the time in which the quantity being followed falls by half. A higher half-life goes with slow loss.

For the origin of these results see publication PMC7982521, “Studies on the Changes of Pharmacokinetics Behaviors of Phytochemicals and the Influence on Endogenous Metabolites After the Combination of Radix Bupleuri and Radix Paeoniae Alba Based on Multi-Component Pharmacokinetics and Metabolomics” (Frontiers in Pharmacology, 2021).
